Several values for one entry are separate records, joined by “and”; a condition that tells them apart may be missing. Equal values may be shown once. Entries after “also recorded” stand apart in the source; their conditions may differ. Read-outs that look alike come from different tables or passages of the source.

The results in this text go back to patent publication US7608642B2, “Wound and skin care compositions” (Kimberly-Clark Worldwide, Inc., priority 2002, dated 2009).

The test system of data set [1] is human skin keratinocyte cell line (normal human epidermal keratinocytes, neonatal). The data set is described as follows: Proliferation of human skin keratinocytes (Cell Titer 96, absorbance 490 nm). It is filed as cell-based. Conditions: for Cell proliferating activity on human keratinocytes (in words): 1×10^−4 M to 1×10^−6 M vs control; for Mean optical density (OD) at 490 nm, cell proliferation / Median optical density (OD) at 490 nm, cell proliferation: 48 hours, KBM, n=5. Here is the method:
In addition, 100 μl of vehicle KBM was added to 5 wells as control. […] The spectrophotometric absorbance of each well was read at 490 nm.

The subject of data set [2] is fibronectin production in the human skin fibroblast cell line. As to the kind of experiment: Fibronectin production in human skin fibroblasts (Takara EIA kit MK115, absorbance 450 nm). The data set is classed as cell-based. The conditions noted are these: for Stimulation of fibronectin production (in words): 1×10^−4 M to 1×10^−6 M vs control; for Mean optical density (OD) at 450 nm, fibronectin production / Median optical density (OD) at 450 nm, fibronectin production: 48 hours, n=2. Here is the method: The cells were first grown in a 96-well assay system using Dulbecco's Modified Eagle's Medium (DMEM) with 10% fetal bovine serum (FBS) both purchased from Sigma Chemical Co, St. Louis, Mo. Serum-free DMEM was used as a control. […] The fibronectin assay was performed using the recommended 100 μl of the supernatant from each well of the 96-well plate. Standard buffer and stop solutions were freshly prepared before running the assay. A pre-antibody-coated 96 well plate (provided with the kit) was used to transfer the test samples and control. The plate was mixed, sealed and incubated for 1 hour at 37° C. All the wells were washed after removing sample solutions, 3 times (300 μl) with washing buffer. 100 ul of antibody-POD conjugate solution was added into the wells. Plate was mixed, sealed and incubated for one hour at 37° C. Solutions were removed and the wells were washed 3 times with washing buffer. All the wells were completely emptied at the end of washing from any liquid. 100 μl of substrate solution (hydrogen peroxide and tetramethylbenzidine in a buffered solution) was added to each well and the plate was incubated at room temperature for 15 minutes. 100 μl of stop solution (freshly prepared 1N H2SO4) was added to each well in the same order as substrate. The plate was gently mixed and absorbance was read at 450 nm.

Data set [3] concerns collagen production in the human skin fibroblast cell line. The data set is described as follows: Collagen production in human skin fibroblasts (Takara EIA kit MK101, absorbance 450 nm). It is filed as cell-based. Conditions: for Stimulation of collagen production (in words): 1×10^−4 M to 1×10^−6 M vs control; for Mean optical density (OD) at 450 nm, collagen production / Median optical density (OD) at 450 nm, collagen production: 48 hours, n=2. Here is the method:
The cells were first grown in a 96-well assay system using Dulbecco's Modified Eagle's Medium (DMEM) with 10% fetal bovine serum (FBS) both purchased from Sigma Chemical Co, St. Louis, Mo. Serum-free DMEM was used as a control.
The assay was done by using the recommended 20 ul of the supernatant from each well of the 96-well plate. Standard buffer and stop solutions were freshly prepared before running the assay. 100 ul of antibody-POD conjugate solution (supplied with the kit) was added into the wells using pre antibody coated 96 well plate (supplied with the kit). 20 ul of standard and test solutions (from the other 96-well plate containing fibroblasts) were added to appropriate wells. Plate was mixed gently, sealed and incubated for three hrs. at 37° C.
After incubation each well was washed carefully four times with PBS buffer (400 ul). All the wells were completely emptied at the end of washing from any liquid.
100 ul of substrate solution (hydrogen peroxide and tetramethylbenzidine in a buffer solution, supplied with the kit) was added to each well and the plate was incubated for 15 minutes. At this point 100 ul of stop solution (freshly prepared 1N H2SO4) was added to each well in the same order as substrate. The plate was gently mixed and absorbance was read at 450 nm.

Data set [4] relates to human skin fibroblast cell line (normal human dermal fibroblasts, neonatal). Conditions: for Cell proliferating activity on human skin fibroblasts (in words): 1×10^−4 M to 1×10^−6 M vs control; for Mean optical density (OD) at 490 nm, cell proliferation / Median optical density (OD) at 490 nm, cell proliferation: 28 hours, serum-free DMEM, n=5.
Description: Statistical analyses of data were performed using one-way ANOVA. P<0.05 is considered significant, while P<0.0001 is considered extremely significant and P<0.001 is considered as very very significant.
For the next data set, the system named is Swiss Albino mice. As to the kind of experiment: Wound healing, full thickness skin wounds (3 mm biopsy punch) in mice. It is filed as in vivo, mouse. Here is the method:
Twenty, 12-week old Swiss Albino mice were anesthetized with a ketamine/acepromazine cocktail and subjected to four full thickness skin wounds on the dorsolateral surface. […] Jasmonic acid (100 mg) was dissolved in 2 ml ethanol. 200 μl of the resulting solution was then added to 4.8 ml of WFI. Four wounds were made on either side of the spinal column using a 3 mm biopsy punch. To make the wounds, the skin was first tented and the punch was driven through the tented skin to generate both wounds with a single stroke. The upper left quadrant wound site of the animal was assigned to receive the control solution (WFI). […] The wound sites were dosed 5 times (twice on Day 0, Day 1, and once on Day 2). All wounds were treated with 5 μl of test or control solutions. Wounds were allowed to absorb the solutions for 5 minutes before returning the animals to their cages for recovery. All the animals were housed singly. The in-life phase for the animals is 5 days. Each day the wounds on the mice were traced onto glass slides and measured using calipers accurate to the nearest 0.1 mm. Photographs of the wounds were also taken daily for the duration of the study to measure wound size. Means and the standard deviations of the wound diameters for each day were calculated for the healing profile. The effects of the test substances on wound healing were compared to the effects of the control (WFI).

Data set [5] has as its system healthy female volunteers. The data set is described as follows: Dansyl chloride cell renewal study (stratum corneum renewal time). It is filed as in vivo, human. From the text: The stratum corneum renewal time is the time taken for the whole thickness of the stratum corneum to be exfoliated and replaced by new cells from the dividing epidermis. This renewal time is a fundamental indicator of skin health. […] See Jansen L H, Hojyo-Tomoko M T, Kligman A M., Improved fluorescence staining technique for estimating turnover of the human stratum corneum, Br J Dermatol., 90, 9-12, 1974; Ridge B D, Batt M D, Palmer H E, Jarrett A, The dansyl chloride technique for stratum corneum renewal as an indicator of changes in epidermal mitotic activity following topical treatment., Br J Dermatol., 118, 167-74, 1988; Grove G L, Kligman A M, Age-associated changes in human epidermal cell renewal., J Geron., 38, 137-142, 1983. The time required for the dye to disappear is therefore an indication of the turnover time of the stratum corneum. Therefore, any differences in the time required for the dye to disappear from treated and non-treated sites can be considered to be an expression of that product's ability to enhance epidermal renewal.
A dansyl chloride cell renewal study was conducted in healthy female volunteers ranging from 43-64 years of age. The study consisted of a two-week treatment period during which time the products were applied topically twice daily, including on weekend days, to the test sites. The area of application was designated, approximately 5 cm×10 cm on the upper inner arm. The other arm served as a control with no product application. […] Eight females received jasmonic acid and seven females received gibberellic acid.
The time required for a marker dye to disappear was used as the measure of cell renewal rate.

For zeatin, the “Cell proliferating activity on human keratinocytes (in words)” value in data set [1] (listed as t-zeatin) is “strong cell proliferating activity at all concentrations; also recorded: all concentrations of t-zeatin had a significant effect on cell growth”. Besides, the “Mean optical density (OD) at 490 nm, cell proliferation” value (shortened to “Mean optical density (OD) at 490 nm”) in data set [1] (1×10^−4 M) was determined as 0.7726; in data set [1] (1×10^−5 M), 0.8716; in data set [1] (1×10^−6 M) it was 0.9770. Besides, the “Median optical density (OD) at 490 nm, cell proliferation” value (“Median optical density (OD) at 490 nm” below) is reported as 0.7880 in data set [1] (1×10^−4 M), 0.8790 in data set [1] (1×10^−5 M) and 0.9830 in data set [1] (1×10^−6 M). For the same compound, in data set [2], the “Stimulation of fibronectin production (in words)” value is on record as “effective for stimulating fibronectin production in human fibroblasts; also recorded: all compounds stimulated fibronectin production”. Moreover, the entries for the “Mean optical density (OD) at 450 nm, fibronectin production” value in data set [2] (1×10^−4 M), in data set [2] (1×10^−5 M) and in data set [2] (1×10^−6 M) were 0.2075, 0.2110 and 0.1995, respectively. Besides, the “Median optical density (OD) at 450 nm, fibronectin production” value is 0.2075 in data set [2] (1×10^−4 M), 0.2110 in data set [2] (1×10^−5 M) and 0.1995 in data set [2] (1×10^−6 M). Besides, the “Stimulation of collagen production (in words)” value in data set [3] is given as “strongly stimulated collagen production at medium concentrations; also recorded: medium concentrations of zeatin also stimulated collagen production”. The figures for the “Mean optical density (OD) at 450 nm, collagen production” value in data set [3] (1×10^−4 M), in data set [3] (1×10^−5 M) and in data set [3] (1×10^−6 M) were 0.7665, 0.8115 and 0.7715, respectively. Besides, the entries for the “Median optical density (OD) at 450 nm, collagen production” value in data set [3] (1×10^−4 M), in data set [3] (1×10^−5 M) and in data set [3] (1×10^−6 M) were 0.7665, 0.8115 and 0.7715, respectively.
With `CC(=O)Oc1ccccc1C(=O)O` [acetylsalicylic acid], the “Cell proliferating activity on human skin fibroblasts (in words)” value in data set [4] is listed as “strong cell proliferating activity at all concentrations; also recorded: all concentrations of acetylsalicylic acid had a significant effect on cell growth”. Moreover, the “Mean optical density (OD) at 490 nm” value in data set [4] (1×10^−4 M) amounted to 0.5406; in data set [4] (1×10^−5 M) it was 0.6276; in data set [4] (1×10^−6 M) it was 0.6590. Besides, the entries for the “Median optical density (OD) at 490 nm” value in data set [4] (1×10^−4 M), in data set [4] (1×10^−5 M) and in data set [4] (1×10^−6 M) were 0.5290, 0.6270 and 0.6590, respectively.
As to `O=C(O)c1ccccc1O` [salicylic acid], in data set [4], the “Cell proliferating activity on human skin fibroblasts (in words)” value is “strong cell proliferating activity especially at the lower concentrations; also recorded: all concentrations of salicylic acid had a significant effect on cell growth”. For the same compound, the “Mean optical density (OD) at 490 nm” value worked out at 0.3916 in data set [4] (1×10^−4 M), 0.5004 in data set [4] (1×10^−5 M) and 0.4668 in data set [4] (1×10^−6 M). Further, the “Median optical density (OD) at 490 nm” value in data set [4] (1×10^−5 M) amounted to 0.5110; in data set [4] (1×10^−6 M), 0.4690.
In the case of `CC/C=C\C[C@H]1C(=O)CC[C@@H]1CC(=O)O` [jasmonic acid], in the data set with Swiss Albino mice (topical 0.2% solution vs control (WFI)), the “Time control-treated wounds required to close to the same extent achieved in jasmonic acid-treated wounds on day 1” value is “over 2.5 days”. For the same compound, the “Effect on wound closure / wound healing (in words)” value in the data set on Swiss Albino mice (topical 5 μl of 0.2% solution, 5 doses Day 0-2, vs control (WFI)) is recorded as “significantly accelerated the rate of wound healing; also recorded: experienced slower wound closure than mice receiving a 0.2% solution of jasmonic acid”. The “Cell proliferating activity on human keratinocytes (in words)” value in data set [1] was “strong cell proliferating activity especially at the lower concentrations; also recorded: all concentrations of jasmonic acid had an effect on cell growth”. The “Mean optical density (OD) at 490 nm” value is recorded as 0.5732 in data set [1] (1×10^−4 M), 0.7628 in data set [1] (1×10^−5 M) and 0.7734 in data set [1] (1×10^−6 M). Besides, the “Median optical density (OD) at 490 nm” value worked out at 0.5860 in data set [1] (1×10^−4 M), 0.7750 in data set [1] (1×10^−5 M) and 0.7970 in data set [1] (1×10^−6 M). Further, the “Stimulation of fibronectin production (in words)” value in data set [2] is “effective for stimulating fibronectin production in human fibroblasts; also recorded: all compounds stimulated fibronectin production”. Moreover, the “Mean optical density (OD) at 450 nm, fibronectin production” value amounted to 0.2060 in data set [2] (1×10^−4 M), 0.2025 in data set [2] (1×10^−5 M) and 0.1955 in data set [2] (1×10^−6 M). The entries for the “Median optical density (OD) at 450 nm, fibronectin production” value in data set [2] (1×10^−4 M), in data set [2] (1×10^−5 M) and in data set [2] (1×10^−6 M) were 0.2060, 0.2025 and 0.1955, respectively. Moreover, in data set [5] (0.25% in hyaluronic acid (0.5% aqueous solution), topical twice daily for two weeks, upper inner arm, individual patients, listed as JA), the “Time for cell renewal, treated skin (RENEWAL)” value was 12 Days (2×) and 16 Days and 15 Days (2×) and 17 Days and 14 Days and 11 Days. For the same compound, the “Skin irritation or redness” value in data set [5] (in vivo) is “no visible sign of any skin irritation or redness”. Also, the “Stimulation of collagen production (in words)” value in data set [3] was “strongly stimulated collagen production at higher concentrations; also recorded: Higher concentrations of jasmonic acid and medium concentrations of zeatin also stimulated collagen production”. Besides, the “Mean optical density (OD) at 450 nm, collagen production” value in data set [3] (1×10^−4 M) was found to be 0.8040; in data set [3] (1×10^−5 M) it was 0.7895; in data set [3] (1×10^−6 M), 0.7475. In addition, the results for the “Median optical density (OD) at 450 nm, collagen production” value in data set [3] (1×10^−4 M), in data set [3] (1×10^−5 M) and in data set [3] (1×10^−6 M) were 0.8040, 0.7895 and 0.7475, respectively.
